# According to ChEMBL document CHEMBL1141788, “Dendridine A, a bis-indole alkaloid from a marine sponge Dictyodendrilla Species” (2005):
# Tests used:
# Format in all cases: functional
# Cryptococcus neoformans = experiment: Antifungal activity against Cryptococcus neoformans
# Bacillus subtilis = experiment: Antibacterial activity against Bacillus subtilis
# Micrococcus luteus = experiment: Antibacterial activity against Micrococcus luteus
smiles,measurement,setting,value
NCCc1c[nH]c2c(O)cc(Br)c(-c3c(Br)cc(O)c4[nH]cc(CCN)c34)c12 [DENDRIDINE A],MIC,Cryptococcus neoformans,8.3 µg/mL
same,MIC,Bacillus subtilis,8.3 µg/mL
same,MIC,Micrococcus luteus,4.2 µg/mL
